We go through 2 molecules from publication PMC2864424 (Current Chemical Genomics, 2010).

Like-named read-outs stand apart in the source and are kept apart here.

The test system of data set [1] is OATP1B3. As to conditions: read-out: Ki, inhibition of BSP transport, OATP1B3; cited from earlier work.
Data set [2] has as its system OATP1B1. The settings on record: read-out: Ki, inhibition of fexofenadine transport, OATP1B1; cited from earlier work.
Another data set concerns OATP1B1 and OATP1B3. The class given is cell-based, human. The settings on record: primary screen of FMTX uptake by OATP1B1 or OATP1B3.
Data set [3] concerns OATP1B1 and OATP1B3 (not distinguished). It counts as cell-based, human. As to conditions: human, CHO cells stably expressing OATP1B1 or OATP1B3, pH 7.4, probe FMTX, 5 µM.
Data set [4] deals with OATP1B1. The settings on record: read-out: Ki, inhibition of BSP transport, OATP1B1; cited from earlier work.
Data set [5] concerns OATP1B3. As to conditions: read-out: Ki, inhibition of fexofenadine transport, OATP1B3; cited from earlier work.
The subject of data set [6] is OATP1B3. The settings on record: read-out: IC50, inhibition of bosentan transport, OATP1B3; ref Treiber et al. 5; cited from earlier work.
In data set [7] the test system is OATP1B1. The settings on record: read-out: IC50, inhibition of bosentan transport, OATP1B1; ref Treiber et al. 5; cited from earlier work.
Data set [8] deals with OATP1B1. The settings on record: read-out: IC50, inhibition of Ro 48-5033 uptake, OATP1B1; ref Treiber et al. 5; cited from earlier work.
Data set [9] relates to OATP1B3. As to conditions: read-out: IC50, inhibition of Ro 48-5033 uptake, OATP1B3; ref Treiber et al. 5; cited from earlier work.
For data set [10], the system named is OATP1B1. The settings on record: cited from earlier work.
The test system of data set [11] is OATP1B3. The settings on record: concentrations up to 10 μM; cited from earlier work.

The term Ki denotes the dissociation constant of the complex between target and ligand, obtained from inhibition or displacement. The IC50 is the concentration needed to halve the response being measured.

Consider `CO[C@H]1/C=C/O[C@@]2(C)Oc3c(C)c(O)c4c(O)c(c(/C=N/N5CCN(C)CC5)c(O)c4c3C2=O)NC(=O)/C(C)=C\C=C\[C@H](C)[C@H](O)[C@@H](C)[C@@H](O)[C@@H](C)[C@H](OC(C)=O)[C@@H]1C` [Rifampicin], for which the Ki is 5000 nM in the data set with OATP1B3 [1], 500 nM in the data set with OATP1B1 [2], 17000 nM in the data set with OATP1B1 [4] and 1500 nM in the data set with OATP1B3 [5]. In the data set with OATP1B1 and OATP1B3, the “Prestwick library screening result” value is reported as “strongest inhibitors”. In data set [3], this molecule came in with an IC50 at 30 min of 1300 to 1500 nM. The IC50 in the data set with OATP1B3 [6] was 1600 nM; in the data set with OATP1B1 [7], 3200 nM; with OATP1B1 [8] it was ~50000 nM; with OATP1B3 [9], 800 nM.
`CC1(C)C(/C=C/C=C/C=C/C=C2\N(CCCCS(=O)(=O)O)c3ccc4ccccc4c3C2(C)C)=[N+](CCCCS(=O)(=O)[O-])c2ccc3ccccc3c21` [indocyanine green]: the “effect on OATP1B1-mediated estradiol-17β-glucuronide transport” value in the data set on OATP1B1 [10] is reported as “specific inhibitor”. For the same molecule, in the data set with OATP1B3 [11], the “effect on OATP1B3-mediated estradiol-17β-glucuronide transport” value is given as “not affecting”.
